Measured values as given in patent US8715677B2, “Immunological uses of immunomodulatory compounds for vaccine and anti-infectious disease therapy” (Celgene Corporation, priority 2005, dated 2014).

Legend:
Type in all cases: cell-based
[1] = test system: γδ T cells; test: Apoptosis of γδ T cells (annexin V PE / 7-AAD); details: with or without IPP; FIG. 6
Procedure: Gamma delta T cells were treated with a single dose of 25 μM IPP and weekly with 150 U/ml of IL-2 for 4 weeks and 3 days. Cells were then either left untreated or treated with Actimid™, IPP or Actimid™ and IPP. Apoptosis was assessed by staining of cells with annexin V PE and 7-AAD at various time points and analysis using a FACSCalibur.
Gamma delta T cells were treated with a single dose of 25 μM IPP and weekly with 150 U/ml of IL-2 for 31 days. Cells were then either left untreated or treated with Actimid™, IPP, or Actimid™ and IPP in combination. Apoptosis was assessed by staining of cells with annexin V PE and 7-AAD at the stated time points and analysis using a FACSCalibur. Annexin V PE negative/7-AAD negative cells are designated live, annexin V PE positive/7-AAD negative early apoptotic, annexin V PE positive/7-AAD positive late apoptotic and annexin V PE negative/7-AAD positive dead.

[2] = test system: regulatory T cells; test: Treg suppression of anti-CD3 mAb activated CD4+CD25- cell proliferation; details: for suppressive function of Treg on anti-CD3 mAb activated CD4+CD25- cells: pre-incubation of Treg with compound
Procedure: An assay in which the ability of isolated Treg to suppress anti-CD3 mAb activated CD4+CD25− cells was performed.
Regulatory T cells were isolated by the Dynal T regulatory cell isolation kit, and treated for 24 hours with varying concentrations of an immunomodulatory compound (Actimid™ or lenalidomide) or DMSO. The cells were washed and incubated at a 1:2 ratio with CD25^−CD4^+ cells, which were also isolated by the Dynal T regulatory cell isolation kit. Results were expressed as the mean % change in proliferation compared to the cpms obtained from DMSO treated CD25^+ cells incubated with CD25^− cells.

[3] = test system: γδ T cells; test: IFN-γ production by γδ T cells in co-culture with tumor cells; details: co-culture with RPMI-8226 MM cells, with or without pamidronate; FIG. 8
Procedure: Tumor cells pre-incubated with (FIG. 8B) or without (FIG. 8A) pamidronate were incubated with δγ T cells at different tumor (RPMI-8226 MM) to γδ T cells ratios as indicated in FIG. 8. Some of the cells were further treated by Actimid™. Intracellular IFN-gamma production was measured by flow cytometry.

[4] = test system: Raji cells; test: Direct effects on NHL tumor cells, alone or with anti CD20 antibodies; details: for effect in combination with anti CD20 antibody B1: 10 μM / up to 10 μM
Procedure: Direct effects of IMiDs on NHL tumor cells were tested by treating Raji cells with IMiDs alone, or in combination with anti CD20 antibodies B1 or rituxan. IMiD 1 alone caused up to 40% inhibition of proliferation at 10 μM in Raji cells, which corresponded to G1 arrest.

[5] = test system: RPMI-8226 MM cell lines; test: Cytotoxicity of γδ T cells, chromium release assay
Procedure: Gamma delta T cells were treated with a single dose of 25 μM IPP and weekly with 150 U/ml of IL-2 for 3 weeks and 1 day. RPMI-8226 target cells were incubated overnight with 50 μM pamidronate then treated with 3MBq 51Cr. Target, and effector cells were incubated at different ratios and chromium release was assayed after 4 hours. To determine the effects of Actimid™, the compound was either included in the 22 day preincubation before the assay and in the chromium release step, or was included during the chromium release assay.
Gamma delta cells were treated with a single dose of 25 μM IPP and weekly with 150 U/ml of IL-2 for 22 days. RPMI-8226 target cells were incubated overnight with 50 μM pamidronate, then treated with 3 MBq 51 Cr. Target and effector cells were incubated at various ratios with fresh Actimid™ and chromium release assayed after 4 hours. Actimid™ was also added to some wells for the 22 day pretreatment with IL-2 and IPP (FIG. 9A) or just for the 4 hr chromium release assay (FIG. 9B).

[6] = test system: γδ T cells; test: Cytokine production by γδ T cells
Procedure: Purified γδ T cells were stimulated with IPP±IMiDs ([…]) or with the MM cell line RPMI-8226 (±IMiDs ([…])) in 24 well plates and were incubated 8-72 hours. Cell-free supernatants were collected and stored at −70° C. until assayed by ELISA. IFN-γ, TNF-α and IL-2 were measured by ELISA (BD pharmingen). For fresh δγ preps, PBMCs were stimulated with plate bound anti-CD3 (1.25 μg/ml) for 48 hours and the expression of TNF-α, IFNγ, IL-2 and IL-4 were measured by intracellular FACS on cells stained for γδ TCR.
The effects of Actimid™ on IFN-γ, TNF-α, and IL-4 were examined in freshly prepared γδ T cells and γδ T cell lines stimulated with IPP.

[7] = test system: Rituximab-resistant cell line 4RH; test: Rituximab-mediated ADCC by primed PBMC, 51Cr release, 4RH cells
Procedure: (§1) Rituximab-resistant cell lines (RRCL) were generated by chronic exposure of Raji cells to escalating doses of rituximab alone (2R) or along with human complement (4RH). […] To study the effects of lenalidomide-priming of PBMC's against RRCL, peripheral blood mononuclear cells from healthy donors were cultured with either DMSO or lenalidomide (at final concentrations of 10 or 20 μg/ml), with or without IL-2 (20 IU/ml), over a 5-day period at 37° C., 5% CO2. Parentral Raji, and RRCL (2R and 4RH) were labeled with ^51Cr and exposed to either rituximab or trastuzumab (Isotype control at 20 μg/ml) in the presence of an IMiD or control stimulated-PBMCs (Effector:Target ratio of 40:1). ^51Cr release was measured and the percentage of lysis was calculated. Statistical differences were analyzed by chi-square test.

[8] = test system: Rituximab-resistant cell line 2R; test: Rituximab-mediated ADCC by primed PBMC, 51Cr release, 2R cells; details: E:T 40:1
Procedure: as §1

[9] = test system: Gab2; test: Gab2 phosphorylation in anti-CD3/CD28 stimulated Jurkat T cells; details: at about 1 μM, dose-dependent
Description: The Gab proteins, including Gab1, Gab2 and Gab3 comprise a growing family of phospho-tyrosine regulated scaffolding molecules involved in RTK signal transduction. Phosphorylation of Gab1 in B cells is associated with P13-kinase activity and cell proliferation. While Gab1 is expressed in B cells, only Gab2 is expressed in T cells. Although Gab2 is tyrosine phosphorylated upon TCR activation by ZAP-70, it functions as a negative regulator of TCR signaling via a Shp-2 dependent mechanism. Overexpression of Gab2 in T cells results in the inhibition of IL-2 production (Yamasaki et al., J. Biol. Chem., 2001). The effect of lenalidomide on Gab2 phosphorylation and activation in anti-CD3/CD28 stimulated Jurkat T cells was examined. Lenalidomide inhibited Gab2 phosphorylation dose-dependently (with approximately 50% inhibition at about 1 μM) in a manner that correlated with T cell costimulation and enhancement of IL-2 production.

[10] = test system: Foxp3; test: Foxp3 expression in CD4+CD25+ cells (intracellular staining); details: CD4+CD25+ cells incubated 24 hours; FIG. 3
Procedure: CD4^+CD25^+ cells were incubated for 24 hours with varying concentrations of DMSO, Actimid™, lenalidomide, or thalidomide and then washed twice with RPMI medium. Cells were stained with CD152-PE, CD4-PERCP, and CD25-APC. Intracellular Foxp3 staining and CD152 staining were carried out after permeabilizing the CD4^+ CD25^+ cells. Results were expressed as percentage of expression of Foxp3 in the CD4^+CD25^+ population or the CD4^+CD25^− population.

[11] = TCR γδ cells within freshly prepared PBMC population

Nc1cccc2c1C(=O)N(C1CCC(=O)NC1=O)C2=O (centres unmarked) [Actimid, 4-(amino)-2-(2,6-dioxo(3-piperidyl))-isoindoline-1,3-dione]
apoptosis in γδ T cells [1]: protection against apotosis
suppressive function of Treg on anti-CD3 mAb activated CD4+CD25- cells [2]: inhibits the suppressive function
IFN-γ production by γδ T cells [3]: augmented
effect in combination with rituxan ([4]; 10 μM): slight additive effect
effect in combination with anti CD20 antibody B1 [4]: small additive effect
cytotoxicity of γδ T cells toward RPMI-8226 MM cell lines ([5]; compound added during the 4 hr chromium release assay only, FIG. 9B): enhanced
cytotoxicity of γδ T cells toward RPMI-8226 MM cell lines ([5]; compound added during the 22 day pretreatment, FIG. 9A): enhanced
production of IFN-γ [6, 11]: enhanced
production of TNF-α [6, 11]: enhanced
production of IFN-γ ([6]; γδ T cells stimulated with IPP): enhanced
production of IL-4 ([6]; γδ T cells stimulated with IPP): not

Nc1cccc2c1CN(C1CCC(=O)NC1=O)C2=O (centres unmarked) [IMiD]
mean % of lysis by ADCC ([7]; IMiD exposed PBMC): 26.5+/−1.83%
mean % of lysis by ADCC ([7]; combination IMiD/IL-2 exposed PBMC): 38.4+/−4.1%
rituximab-mediated ADCC, mean % lysis ([8]; PBMC exposed to IMiD for 5 days): 26.9+/−1.18%
rituximab-mediated ADCC, mean % lysis ([8]; PBMC exposed to IMiD+IL-2 for 5 days): 38.4+/−4.14%

Nc1cccc2c1CN(C1CCC(=O)NC1=O)C2=O (centres unmarked) [lenalidomide, 3-(4-amino-1-oxo-1,3-dihydro-isoindol-2-yl)-piperidine-2,6-dione]
suppressive function of Treg on anti-CD3 mAb activated CD4+CD25- cells [2]: inhibits the suppressive function
effect in combination with anti CD20 antibody B1 [4]: minimal
inhibition of Gab2 phosphorylation [9]: approximately 50%

O=C1CCC(N2C(=O)c3ccccc3C2=O)C(=O)N1 (centres unmarked) [thalidomide, reference compound]
Foxp3 expression [10]: little effects
proliferation of CD25- cells in the presence of CD25+CD4+ cells, compared to DMSO treated CD4+CD25+ cells ([2]; Treg treated 24 hours, washed, 1:2 ratio with CD25-CD4+ cells, FIG. 2): little effect
